Reference: patent US10562898B2, “Substituted benzenesulfonamides as inhibitors of alpha-4 beta-7 integrin activity” (EA PHARMA CO., LTD., priority 2016, dated 2020)

The compounds below were run against T1, α4β7 integrin (Homo sapiens, UniProt P13612+P26010) (assay: MAdCAM-1/α4β7 integrin binding inhibitory activity evaluation test (RPMI-8866 cells binding to MAdCAM-1/Fc)). Conditions: recombinant mouse MAdCAM-1/Fc, no serum.
T1 construct: a cell line RPMI-8866, which is known to express α4β7 integrin; endogenous in cells; host or cells: RPMI-8866 (human B cell line)
T1 sequence (P13612 34-1032): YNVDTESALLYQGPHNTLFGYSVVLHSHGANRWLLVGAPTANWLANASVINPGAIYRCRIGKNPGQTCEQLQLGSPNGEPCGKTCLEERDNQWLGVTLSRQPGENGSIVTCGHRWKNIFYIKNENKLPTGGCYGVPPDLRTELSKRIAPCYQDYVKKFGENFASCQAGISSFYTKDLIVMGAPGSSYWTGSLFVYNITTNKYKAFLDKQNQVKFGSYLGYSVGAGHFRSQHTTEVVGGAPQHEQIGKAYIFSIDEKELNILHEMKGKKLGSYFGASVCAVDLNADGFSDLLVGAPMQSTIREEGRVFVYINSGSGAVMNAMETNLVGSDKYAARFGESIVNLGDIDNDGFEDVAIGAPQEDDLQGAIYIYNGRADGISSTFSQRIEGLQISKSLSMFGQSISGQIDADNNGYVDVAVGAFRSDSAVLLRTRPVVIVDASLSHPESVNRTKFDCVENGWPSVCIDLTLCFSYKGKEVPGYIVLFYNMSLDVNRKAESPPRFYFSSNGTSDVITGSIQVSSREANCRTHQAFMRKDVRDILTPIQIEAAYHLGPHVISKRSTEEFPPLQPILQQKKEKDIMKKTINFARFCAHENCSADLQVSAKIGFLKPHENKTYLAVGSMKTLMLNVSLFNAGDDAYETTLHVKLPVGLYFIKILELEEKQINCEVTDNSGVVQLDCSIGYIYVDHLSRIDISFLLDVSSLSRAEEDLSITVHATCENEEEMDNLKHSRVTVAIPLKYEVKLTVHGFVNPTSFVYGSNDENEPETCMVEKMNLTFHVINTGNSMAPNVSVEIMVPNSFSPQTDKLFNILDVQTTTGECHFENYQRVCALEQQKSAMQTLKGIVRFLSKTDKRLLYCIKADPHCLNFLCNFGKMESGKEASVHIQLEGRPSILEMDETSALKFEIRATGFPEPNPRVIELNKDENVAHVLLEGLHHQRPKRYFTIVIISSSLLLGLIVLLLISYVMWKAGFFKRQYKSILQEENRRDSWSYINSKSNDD
T1 sequence (P26010 20-798): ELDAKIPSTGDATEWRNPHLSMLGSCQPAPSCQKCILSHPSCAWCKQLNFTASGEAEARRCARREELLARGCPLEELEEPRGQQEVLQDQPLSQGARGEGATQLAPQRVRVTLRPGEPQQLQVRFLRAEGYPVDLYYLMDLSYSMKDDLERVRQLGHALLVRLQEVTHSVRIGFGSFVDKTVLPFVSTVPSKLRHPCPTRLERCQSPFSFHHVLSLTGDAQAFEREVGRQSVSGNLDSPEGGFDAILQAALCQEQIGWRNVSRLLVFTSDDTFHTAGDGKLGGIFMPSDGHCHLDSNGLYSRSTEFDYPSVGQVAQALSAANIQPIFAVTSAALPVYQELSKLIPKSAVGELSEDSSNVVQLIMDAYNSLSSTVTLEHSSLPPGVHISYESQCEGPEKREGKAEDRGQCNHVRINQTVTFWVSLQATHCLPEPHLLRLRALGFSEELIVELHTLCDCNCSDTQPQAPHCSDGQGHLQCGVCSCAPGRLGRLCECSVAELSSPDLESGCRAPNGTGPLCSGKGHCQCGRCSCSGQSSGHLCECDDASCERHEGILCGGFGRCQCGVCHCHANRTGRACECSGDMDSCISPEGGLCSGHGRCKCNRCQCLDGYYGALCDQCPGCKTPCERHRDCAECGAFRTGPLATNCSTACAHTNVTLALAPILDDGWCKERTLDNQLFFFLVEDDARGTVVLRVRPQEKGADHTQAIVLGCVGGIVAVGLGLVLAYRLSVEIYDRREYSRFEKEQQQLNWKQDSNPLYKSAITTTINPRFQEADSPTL
Type: cell-based
Method: (2) MAdCAM-1/α4β7 Integrin Binding Inhibitory Activity Evaluation Test
Each test substance was measured in terms of an ability to inhibit the MAdCAM-1 binding of a human B cell line, namely, a cell line RPMI-8866, which is known to express α4β7 integrin.
A solution of recombinant mouse MAdCAM-1/Fc (R&D Systems, Inc.) (0.75 μg/mL) diluted with a buffer A (carbonate buffer, pH 9.6) was added in an amount of 50 μL/well to a 96-well microtiter plate, followed by incubation at 4° C. overnight. After the plate was washed with PBS once, 150 μL/well of Block Ace (Snow Brand Milk Products Co., Ltd.) was added, followed by incubation at room temperature for 2 hours. After removal, the plate was washed with PBS once.
Then, 100 μL of the RPMI-8866 cells (2×10^6 cells/mL) and 100 μL of the test substance at each of various concentrations diluted with a binding buffer (DMEM containing 40 mM HEPES, 0.2% BSA, and 4 mM MnCl2) were added on the plate coated with the MAdCAM-1/Fc (5×10^5 cells/well), followed by incubation at 30° C. for 15 to 60 minutes. After the cells were bound to the wells, the plate was washed with PBS to remove unbound cells. A buffer C (PBS containing 1.5% Triton X-100) in an amount 50 μL/well was added to the plate to lyse the bound RPMI-8866 cells. After 30 μL of a substrate buffer (Promega, CytoTox 96 Non-Radioactive Cytotoxicity Assay) was added to 30 μL of the cell lysate, a reaction was allowed to proceed at room temperature in the dark for 30 minutes. After 30 μL of a stop solution (Promega, CytoTox 96 Non-Radioactive Cytotoxicity Assay) was added to each, and then an absorbance at 490 nm was measured using a plate reader. The absorbance obtained here represents a detection result of an activity of lactate dehydrogenase (LDH) eluted in the supernatant of each well, that is, the absorbance is proportional to the number of RPMI-8866 cells bound to the MAdCAM-1 and thus remaining on the plate. The test was performed in duplicate. Provided that the absorbance of the well containing no test substance was 100%, a cell binding rate with the test substance at each of the various concentrations was figured out, and a concentration IC50 which brought about 50% binding inhibition was calculated.

Point of comparison: `Cc1cn(C)c(=O)n(-c2ccc(C[C@H](NC(=O)c3cc(F)c(NS(=O)(=O)c4ccc(NC(=O)C(C)(C)C)cc4)cc3F)C(=O)O)nc2)c1=O` [Compound A69], IC50 1.8 nM. Against it:
- Cc1cn(C)c(=O)n(-c2ccc(C[C@H](NC(=O)c3cc(F)c(NS(=O)(=O)c4ccc(NC(=O)C(C)(C)C(F)(F)F)cc4)cc3F)C(=O)O)cn2)c1=O [Compound A58] — within 1.5-fold, 1.3 nM
- Cn1ccc(=O)n(-c2ccc(C[C@H](NC(=O)c3cc(F)c(NS(=O)(=O)c4ccc(NC(=O)C5(C#N)CC5)cc4)cc3F)C(=O)O)cn2)c1=O [Compound A59] — 1.8-fold higher, 3.3 nM
- Cc1cn(C)c(=O)n(-c2ccc(C[C@H](NC(=O)c3cc(F)c(NS(=O)(=O)c4ccc(NC(=O)C5(C#N)CC5)cc4)cc3F)C(=O)O)cn2)c1=O [Compound A60] — within 1.5-fold, 2.3 nM
- CCC(CC)C(=O)Nc1ccc(S(=O)(=O)Nc2cc(F)c(C(=O)N[C@@H](Cc3ccc(-n4c(=O)ccn(C)c4=O)nc3)C(=O)O)cc2F)cc1 [Compound A61] — 3.8-fold higher, 6.9 nM
- Cn1ccc(=O)n(-c2ccc(C[C@H](NC(=O)c3cc(F)c(NS(=O)(=O)c4ccc(NC(=O)C(C)(C)CO)cc4)cc3F)C(=O)O)cn2)c1=O [Compound A62] — 2.7-fold higher, 4.9 nM
- Cc1cn(C)c(=O)n(-c2ccc(C[C@H](NC(=O)c3cc(F)c(NS(=O)(=O)c4ccc(NC(=O)C(C)(C)CO)cc4)cc3F)C(=O)O)cn2)c1=O [Compound A63] — within 1.5-fold, 2.4 nM
- Cn1ccc(=O)n(-c2ccc(C[C@H](NC(=O)c3cc(F)c(NS(=O)(=O)c4ccc(NC(=O)C5CCCC5)cc4)cc3F)C(=O)O)cn2)c1=O [Compound A64] — 3.1-fold higher, 5.5 nM
- Cc1cn(C)c(=O)n(-c2ccc(C[C@H](NC(=O)c3cc(F)c(NS(=O)(=O)c4ccc(NC(=O)C5CCCC5)cc4)cc3F)C(=O)O)cn2)c1=O [Compound A65] — 1.8-fold higher, 3.3 nM
- Cn1c(C(F)(F)F)cc(=O)n(-c2ccc(C[C@H](NC(=O)c3cc(F)c(NS(=O)(=O)c4ccc(NC(=O)C(C)(C)C)cc4)cc3F)C(=O)O)cn2)c1=O [Compound A66] — 1.8-fold higher, 3.3 nM
- Cn1cc(C(F)(F)F)c(=O)n(-c2ccc(C[C@H](NC(=O)c3cc(F)c(NS(=O)(=O)c4ccc(NC(=O)C(C)(C)C)cc4)cc3F)C(=O)O)cn2)c1=O [Compound A67] — within 1.5-fold, 1.9 nM
- Cc1cn(C)c(=O)n(-c2ccc(C[C@H](NC(=O)c3cc(F)c(NS(=O)(=O)c4ccc(NC(=O)C#CC(C)(C)C)cc4)cc3F)C(=O)O)cn2)c1=O [Compound A68] — 2.8-fold higher, 5 nM
- Cn1ccc(=O)n(-c2ccc(C[C@H](NC(=O)c3cc(F)c(NS(=O)(=O)c4ccc(NC(=O)C(C)(C)C)cc4)cc3F)C(=O)O)nc2)c1=O [Compound A70] — 1.9-fold higher, 3.4 nM
- Cc1cn(C)c(=O)n(-c2ccc(C[C@H](NC(=O)c3cc(F)c(NS(=O)(=O)c4ccc(NC(=O)C(C)C)cc4)cc3F)C(=O)O)cn2)c1=O [Compound A71] — 1.8-fold higher, 3.2 nM
- Cc1cc(=O)n(-c2ccc(C[C@H](NC(=O)c3cc(F)c(NS(=O)(=O)c4ccc(NC(=O)C(C)(C)C)cc4)cc3F)C(=O)O)nc2)c(=O)n1C [Compound A72] — the same, 1.8 nM
- Cc1cn(C)c(=O)n(-c2ccc(C[C@H](NC(=O)c3cc(F)c(NS(=O)(=O)c4ccc(NC(=O)C(C)(C)C)s4)cc3F)C(=O)O)cn2)c1=O [Compound A73] — within 1.5-fold, 2.2 nM
- Cc1cn(C)c(=O)n(-c2ccc(C[C@H](NC(=O)c3cc(F)c(NS(=O)(=O)c4ccc5c(NC(=O)C(C)(C)C)c[nH]c5c4)cc3F)C(=O)O)cn2)c1=O [Compound A74] — 4.3-fold higher, 7.8 nM
- CN1CCC(=O)N(c2ccc(C[C@H](NC(=O)c3cc(F)c(NS(=O)(=O)c4ccc(NC(=O)C(C)(C)C)cc4)cc3F)C(=O)O)cn2)C1=O [Compound A75, (2S)-2-[2,5-difluoro-4-[(4-pivalamidophenyl)sulfonamide]benzamido]-3-[6-(3-methyl-2,6-dioxotetrahydropyrimidin-1(2H)-yl)pyridin-3-yl]propanoic acid] — 2.2-fold higher, 4 nM
- Cc1cn(C)c(=O)n(-c2ccc(C[C@H](NC(=O)c3cc(F)c(NS(=O)(=O)c4cc5cc(NC(=O)C(C)(C)C)ccc5[nH]4)cc3F)C(=O)O)cn2)c1=O [Compound A76] — within 1.5-fold, 2 nM
- Cc1cn(C)c(=O)n(-c2ccc(C[C@H](NC(=O)c3cc(F)c(NS(=O)(=O)c4c[nH]c5cc(NC(=O)C(C)(C)C)ccc45)cc3F)C(=O)O)cn2)c1=O [Compound A77] — 2-fold higher, 3.6 nM
